Test results as given in patent US4794125A, “Compounds having an immunizing activity” (CL Pharma AG, priority 1984, dated 1988).

Tested on: delayed-type hypersensitivity
Test: DTH test (delayed-type hypersensitivity in mice), topical sensitization with oxazolone
Type: in vivo
Details: dose 1.0 mg/kg; OF-1 mice; topical sensitization with ethanol oxazolone solution
Protocol: The compounds prepared in accordance with the invention were investigated using the DTH test (delayed-type hypersensitivity in mice) according to Dietrich, F. M. & Hess, R.: Hypersensitivity in mice.
The new compounds (2,6-bis-MAA=2,6-bis-/(methylamino)-acetylamino/-anthraquinone), CS-A=cyclosporin A, were tested in vivo in OF-1 mice by topical sensitization with antigen (ethanol oxazolone solution). The decrease in the inflammatory response versus untreated animals is expressed as % inhibition.

For `CNCC(=O)Nc1ccc2c(c1)C(=O)c1ccc(NC(=O)CNC)cc1C2=O` [2,6-bis-MAA, 2,6-bis-(methylamino)-acetylamino-anthraquinone], the “% Inhibition (decrease in the inflammatory response versus untreated animals)” value was 35%.
